Laboratory results taken from patent US9149038B2, “4-amino-6-(heterocyclic)picolinates and 6-amino-2-(heterocyclic)pyrimidine-4-carboxylates and their use as herbicides” (Dow AgroSciences LLC, priority 2013, dated 2015).
Read-outs that look alike come from different tables or passages of the source.

Assays:
[1] = system: Key Grass and Sedge Weeds as well as Grass Crops; assay: Post-Emergent Test II: postemergent herbicidal activity, visual rating after 14 d (Table 8); assay type: in vivo; settings: post-emergence, 336 h; for pest or weed control at 35 g/ha: 35 g ai/ha; for pest or weed control at 70 g/ha: 70 g ai/ha; for pest or weed control at 140 g/ha: 140 g ai/ha
How it was run: (§1)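 Greenhouse plants at first or second true leaf stage sprayed with compound in acetone/DMSO-based spray solution with crop oil concentrate and Triton X-155 at 187 L/ha, tested at highest rate and ½× to 1/16× dilutions; solvent blank controls. Injury rated visually 0–100% versus untreated plants after 14 d.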

[2] = system: Key Broadleaf Weed and Crop Species; assay: Post-Emergent Test II: postemergent herbicidal activity, visual rating after 14 d (Table 7); assay type: in vivo; settings: post-emergence, 336 h; for pest or weed control at 35 g/ha: 35 g ai/ha; for pest or weed control at 70 g/ha: 70 g ai/ha; for pest or weed control at 140 g/ha: 140 g ai/ha
How it was run: as §1

[3] = barnyardgrass (Echinochloa crus-galli), read-out: Visual Growth Reduction (%) 14 Days After Application ECHCG
[4] = giant foxtail (Setaria faberi), read-out: Visual Growth Reduction (%) 14 Days After Application SETFA
[5] = maize, corn (Zea mays), read-out: Visual Growth Reduction (%) 14 Days After Application ZEAMX
[6] = rice (Oryza sativa), read-out: Visual Growth Reduction (%) 14 Days After Application ORYSA
[7] = wheat, spring (Triticum aestivum), read-out: Visual Growth Reduction (%) 14 Days After Application TRZAS
[8] = yellow nutsedge (Cyperus esculentus), read-out: Visual Growth Reduction (%) 14 Days After Application CYPES
[9] = lambsquarters (Chenopodium album), read-out: Visual Growth Reduction (%) 14 Days After Application CHEAL
[10] = oilseed rape, canola (Brassica napus), read-out: Visual Growth Reduction (%) 14 Days After Application BRSNN
[11] = redroot pigweed (Amaranthus retroflexus), read-out: Visual Growth Reduction (%) 14 Days After Application AMARE
[12] = sunflower (Helianthus annuus), read-out: Visual Growth Reduction (%) 14 Days After Application HELAN
[13] = velvetleaf (Abutilon theophrasti), read-out: Visual Growth Reduction (%) 14 Days After Application ABUTH
[14] = wild poinsettia (Euphorbia heterophylla), read-out: Visual Growth Reduction (%) 14 Days After Application EPHHL

| Structure (SMILES) | pest or weed control at 35 g/ha [1, 3] [%] | pest or weed control at 70 g/ha [1, 3] [%] | pest or weed control at 140 g/ha [1, 3] [%] | pest or weed control at 35 g/ha [1, 4] [%] | pest or weed control at 70 g/ha [1, 4] [%] | pest or weed control at 140 g/ha [1, 4] [%] | pest or weed control at 35 g/ha [1, 5] [%] | pest or weed control at 70 g/ha [1, 5] [%] | pest or weed control at 140 g/ha [1, 5] [%] | pest or weed control at 35 g/ha [1, 6] [%] | pest or weed control at 70 g/ha [1, 6] [%] | pest or weed control at 140 g/ha [1, 6] [%] | pest or weed control at 35 g/ha [1, 7] [%] | pest or weed control at 70 g/ha [1, 7] [%] | pest or weed control at 140 g/ha [1, 7] [%] | pest or weed control at 35 g/ha [1, 8] [%] | pest or weed control at 70 g/ha [1, 8] [%] | pest or weed control at 140 g/ha [1, 8] [%] | pest or weed control at 35 g/ha [2, 9] [%] | pest or weed control at 70 g/ha [2, 9] [%] | further results |
| --- | --- | --- | --- | --- | --- | --- | --- | --- | --- | --- | --- | --- | --- | --- | --- | --- | --- | --- | --- | --- | --- |
| COC(=O)c1nc(-c2ccc(Cl)c3c2OC(F)(F)O3)c(F)c(N)c1Cl [Compound 75] | 0 to 29 | 0 to 29 | 0 to 29 | 0 to 29 | 0 to 29 | 0 to 29 | 95 to 100 | 95 to 100 | 95 to 100 | 0 to 29 | 0 to 29 | 0 to 29 | 0 to 29 | 0 to 29 | 0 to 29 | 0 to 29 | 0 to 29 | 45 to 59 | 95 to 100 | 95 to 100 | pest or weed control at 140 g/ha [2, 9]: 95 to 100%; pest or weed control at 35 g/ha [2, 10]: 75 to 84%; pest or weed control at 70 g/ha [2, 10]: 85 to 94%; pest or weed control at 140 g/ha [2, 10]: 95 to 100%; pest or weed control at 35 g/ha [2, 11]: 95 to 100%; pest or weed control at 70 g/ha [2, 11]: 95 to 100%; pest or weed control at 140 g/ha [2, 11]: 95 to 100%; pest or weed control at 35 g/ha [2, 12]: 95 to 100%; pest or weed control at 70 g/ha [2, 12]: 95 to 100%; pest or weed control at 140 g/ha [2, 12]: 95 to 100%; pest or weed control at 35 g/ha [2, 13]: 85 to 94%; pest or weed control at 70 g/ha [2, 13]: 95 to 100%; pest or weed control at 140 g/ha [2, 13]: 95 to 100%; pest or weed control at 35 g/ha [2, 14]: 0 to 29%; pest or weed control at 70 g/ha [2, 14]: 0 to 29%; pest or weed control at 140 g/ha [2, 14]: 0 to 29% |
| COC(=O)c1nc(-c2ccc(I)c3c2OC(F)(F)O3)c(F)c(N)c1Cl [Compound 79, Methyl 4-amino-3-chloro-6-(2,2-difluoro-7-iodobenzo-[d][1,3]dioxol-4-yl)-5-fluoropicolinate] | 0 to 29 | 0 to 29 | 0 to 29 | 0 to 29 | 0 to 29 | 0 to 29 | 0 to 29 | 0 to 29 | 0 to 29 | 0 to 29 | 0 to 29 | 0 to 29 | 0 to 29 | 0 to 29 | 0 to 29 | 0 to 29 | 0 to 29 | 0 to 29 | 85 to 94 | 85 to 94 | pest or weed control at 140 g/ha [2, 9]: 85 to 94%; pest or weed control at 35 g/ha [2, 10]: 60 to 74%; pest or weed control at 70 g/ha [2, 10]: 60 to 74%; pest or weed control at 140 g/ha [2, 10]: 60 to 74%; pest or weed control at 35 g/ha [2, 11]: 95 to 100%; pest or weed control at 70 g/ha [2, 11]: 95 to 100%; pest or weed control at 140 g/ha [2, 11]: 95 to 100%; pest or weed control at 35 g/ha [2, 12]: 85 to 94%; pest or weed control at 70 g/ha [2, 12]: 85 to 94%; pest or weed control at 140 g/ha [2, 12]: 85 to 94%; pest or weed control at 35 g/ha [2, 13]: 60 to 74%; pest or weed control at 70 g/ha [2, 13]: 75 to 84%; pest or weed control at 140 g/ha [2, 13]: 75 to 84%; pest or weed control at 35 g/ha [2, 14]: 0 to 29%; pest or weed control at 70 g/ha [2, 14]: 0 to 29%; pest or weed control at 140 g/ha [2, 14]: 0 to 29% |
